Source: patent US5607836A, “Methods of detecting compounds which bind to the P2U receptor” (The Curators of the University of Missouri, priority 1995, dated 1997)

Legend:
human P2U receptor [1] = target: T1, human P2U receptor (Homo sapiens, UniProt P41231); assay: intracellular calcium by fura-2 fluorescence in 1321N1 human astrocytoma cells expressing the cloned HP2U (LHP2USN); type: cell-based; conditions: for efficacy / effect in concentration-effect curves: HP2U clone expressed in 1321N1 cells
T1 sequence (P41231 whole entry): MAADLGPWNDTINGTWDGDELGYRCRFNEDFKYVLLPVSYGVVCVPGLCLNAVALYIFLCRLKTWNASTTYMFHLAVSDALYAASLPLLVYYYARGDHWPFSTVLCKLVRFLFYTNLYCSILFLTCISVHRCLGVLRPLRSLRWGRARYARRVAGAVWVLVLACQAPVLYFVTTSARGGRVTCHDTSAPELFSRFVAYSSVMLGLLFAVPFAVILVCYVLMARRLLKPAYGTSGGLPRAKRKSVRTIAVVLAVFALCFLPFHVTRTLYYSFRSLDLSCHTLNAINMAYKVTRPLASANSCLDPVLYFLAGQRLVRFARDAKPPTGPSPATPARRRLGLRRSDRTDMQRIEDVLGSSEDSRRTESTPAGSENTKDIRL
Protocol: (§1) Heteroloqous Expression. A retroviral vector-containing plasmid, pLHP2USN, was constructed by insertion of the cloned CF/T43 cDNA into the EcoRI and XhoI sites of pLXSN (A. Miller and G. Rosman, Biotechniques 7, 980 (1989)). An amphotrophic packaging cell line, PA317, was used to produce the LHP2USN retroviral vector and a control vector containing Neor only (LSN). Clonal human astrocytoma cells 1321N1, UNC strain, generously provided by T. K. Harden (UNC, Chapel Hill, N.C.), were plated at 150,000 cells per 60-mm dish and infected with LHP2USN or LSN (2 hr, 4 ug/ml Polybrene) and after 48 hr selected with 600 ug/ml G418 (Life Technologies, Inc., Gaithersburg, Md., U.S.A.). To assay for receptor activity, intracellular calcium concentration was measured in confluent cells on coverslips by fura-2 fluorescence using microspectrofluorimetry as previously described (S. Mason et al., Br. J. Pharmacol. 103, 1649 (1991)). Measurement of cell inositol phosphate formation was as described by H. Brown et al., Mol. Pharmacol. 40, 648 (1991), in accordance with known techniques.
(§2) A retrovirus expression system was employed to study the cloned CF/T43 HP2U cDNA in 1321N1 human astrocytoma cells. The effect of extracellular nuceotides on intracellular calcium, as measured by fura-2 fluorescence, was assessed in CF/T43 cells, uninfected 1321N1 cells, and 1321N1 cells infected with retroviral vector containing either the cloned HP2U or no insert (LSN).
To examine the pharmacological specifity of the HP2U clone expressed in 1321N1 cells, concentration-effect curves were generated for nucleotides and structural analogues active at P2X, P2Y and P2U receptors (data not shown). […] These concentration-effect relations are very similar to those reported for heterologously expressed murine P2U (Lustig, et al., supra) and virtually indistinguishable from data (not shown) generated for the endogenous CF/T43 and HT-29 receptors. Clearly, the agonist specifities fit the definition of the P2U receptor.

murine P2U receptor [2] = target: T2, murine P2U receptor (Mus musculus, UniProt P35383); parameters: host or cells: Xenopus oocytes; conditions: Lustig et al. 1993, cited from earlier work; for stimulation of ^45 Ca^2+ efflux in oocytes: oocytes expressing the cloned receptor
T2 sequence (P35383 whole entry): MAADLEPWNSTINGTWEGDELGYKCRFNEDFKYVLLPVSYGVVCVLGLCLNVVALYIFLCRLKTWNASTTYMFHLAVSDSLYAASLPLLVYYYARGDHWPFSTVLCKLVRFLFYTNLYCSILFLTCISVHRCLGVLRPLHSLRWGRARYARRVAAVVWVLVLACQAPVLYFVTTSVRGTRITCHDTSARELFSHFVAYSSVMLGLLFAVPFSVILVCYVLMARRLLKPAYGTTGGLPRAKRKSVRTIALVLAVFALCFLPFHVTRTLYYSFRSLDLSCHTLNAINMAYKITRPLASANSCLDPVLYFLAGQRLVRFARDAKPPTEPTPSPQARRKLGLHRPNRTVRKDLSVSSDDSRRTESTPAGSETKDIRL

[3] = system: P2T receptor of K562 cells; assay: cytoplasmic free calcium (fura-2) in untransfected or vector-transfected K562 cells; type: cell-based, human; conditions: untransfected K562 cells; for elevation of [Ca^2+ ]i in untransfected K562 cells (P2T receptor): 1 mM for ATP, UTP, ATPγS, BzATP, BzUTP; for effect on [Ca^2+ ]i in untransfected K562 cells: concentrations as high as 1 mM
Excerpt: (§3) Stable and Transient Transfections. To generate stable transfectants expressing the P2U receptor, K562 cells were transfected by electroporation (F. Toneguzzo et al., Mol. Cell. Biol. 6, 703 (1986)) with the neomycin-resistance plasmid pP2R1. pP2R1 is pRc/CMV containing a ~2.4 kb HindIII-NotI fragment of the P2U receptor cDNA, missing the first 6 nucleotides of the 5' untranslated region of the full length cDNA. control cells were stably transfected with pRc/CMV. Cells were sedimented at 200×g for 5 min at room temperature, rinsed once with phosphate-buffered saline (10 mM NaH2 PO4, pH 7.4, 120 mM NaCl, 5 mM KCl), and resuspended in phosphate-buffered saline at a final concentration of 4×10^7 cells/ml. The cells were chilled on ice for 10 min and then transferred in 0.5 ml aliquots to prechilled electroporation cuvettes. DNA (40 μg of pP2R1 linearized with PvuI) was added to the cell suspension, the cells were subjected to a single electrical pulse (1 kV, 25 μF) and the cuvettes were placed on ice. After 10 min, growth medium was added and the cells were incubated at 37° C. Fresh growth medium supplemented with 0.7 mg/ml G418 was added 48 h […], and the cells were incubated for 2 weeks to select for stable transfectants expressing neomycin resistance. Clonal cell lines were then isolated by transferring single cells to individual wells of a 96-well culture plate: each well contained 0.2 ml of conditioned growth medium filtered from K562 stock cultures, 0.2 ml of fresh growth medium, and 0.4 mg/ml G418. The clonal cell lines were cultured for three to four weeks in growth medium containing 0.4 mg/ml G418 and assayed for P2U receptor, the results shown are from one representative clonal cell line.
(§4) Cytoplasmic Free Calcium Measurements. Cells were sedimented at 200×g for 5 min at room temperature and washed once with 10 ml of Hepes-bufferedsaline (20 mM Hepes, pH 7.4, 120 mM NaCl, 5 mM KCl, 1 mM MgCl2, and 1 mM CaCl2). Washed cells were suspended in Hepes-buffered saline at 5×10^5 cells/ml, and stored (for up to 4 h) at 37° C. The concentration of cytoplasmic free calcium, [Ca^2+ ]i, was measured by dual-excitation spectrofluorometric analysis of cells loaded with fura-2, a fluorescent probe for calcium.

murine P2U receptor [4] = target: T2, murine P2U receptor; assay: cytoplasmic free calcium (fura-2) in K562 cells transfected with P2U receptor cDNA; type: cell-based; parameters: missing the first 6 nucleotides of the 5' untranslated region of the full length cDNA; expressed in transfected cells; host or cells: K562 human leukemia cells; conditions: for effect on [Ca^2+ ]i in stable transfectants / prevention of ATP-mediated increases in [Ca^2+ ]i (antagonism): concentrations as high as 1 mM, stable transfectants
Excerpt: as §3
To generate transient transfectants, K562 cells were transfected as above with 40 μg unlinearized plasmid pCCM6×1 or pP2R (Lustig et al., supra 1993). Cells were incubated for 48 h at 37° C. in 100 mm culture dishes containing 12 ml of growth medium and assayed for P2U receptor activity.
as §4

[5] = system: 1321N1 human astrocytoma cells (uninfected or LSN-infected); assay: intracellular calcium by fura-2 fluorescence in uninfected or LSN-infected 1321N1 control cells; type: cell-based; conditions: uninfected or LSN-infected controls
Protocol: as §1, §2

human P2U receptor [6] = target: T1, human P2U receptor; assay: inositol phosphate formation in 1321N1 cells expressing LHP2USN; type: cell-based; conditions: HP2U-1321N1 cells; apyrase in the medium during cell-labeling step
Protocol: as §1
To test this possibility more directly, we measured inositol phosphate formation. […] We hypothesized that during the lengthy labeling period 1321N1 cells released 5'-nucleotides into the medium in quantities sufficient to "self-activate" the receptor. […] Thus, it appears the cells are persistently stimulated by nucleotides in an autocrine fashion. The mode of release of nucleotides from the astrocytoma cells and the biological consequences of the persistent autocrine activation are unknown. To facilitate comparison with controls, the inositol phosphate studies were performed on cells pretreated with apyrase.

[7] = target: T3, P2U receptor of CF/T43 cells (Homo sapiens, UniProt P41231); assay: intracellular calcium by fura-2 fluorescence in CF/T43 cells (endogenous receptor); type: cell-based; conditions: pretreatment
T3 construct: fura-2 calcium
T3 sequence (P41231 whole entry): as the sequence (P41231 whole entry) above
Protocol: as §1, §2

Compound | effect on [Ca^2+ ]i in untransfected K562 cells [3] | effect on [Ca^2+ ]i in stable transfectants (murine P2U receptor [4]) | prevention of ATP-mediated increases in [Ca^2+ ]i (antagonism) (murine P2U receptor [4]) | other results
CSc1nc(N)c2ncn([C@@H]3O[C@H](COP(=O)(O)OP(=O)(O)OP(=O)(O)O)[C@@H](O)[C@H]3O)c2n1 [2-MeSATP, 2-methylthioATP] |  |  |  | efficacy / effect in concentration-effect curves (human P2U receptor [1]): had little effect; stimulation of ^45 Ca^2+ efflux in oocytes (murine P2U receptor [2]): did not stimulate; elevation of [Ca^2+ ]i in untransfected K562 cells (P2T receptor) [3]: elevated [Ca^2+ ]i; agonist activity at the P2U receptor (murine P2U receptor [4]; K562 stable transfectants): do not appear to act as agonists of the P2U receptor
Nc1ncnc2c1ncn2[C@@H]1O[C@H](COP(=O)(O)OP(=O)(O)O)[C@@H](O)[C@H]1O [ADP] |  |  |  | stimulation of ^45 Ca^2+ efflux in oocytes (murine P2U receptor [2]): did not stimulate; elevation of [Ca^2+ ]i in untransfected K562 cells (P2T receptor) [3]: elevated [Ca^2+ ]i; agonist activity at the P2U receptor (murine P2U receptor [4]; K562 stable transfectants): do not appear to act as agonists of the P2U receptor
Nc1ncnc2c1ncn2[C@@H]1O[C@H](COP(=O)(O)O)[C@@H](O)[C@H]1O [AMP] | had no effect | had no effect | did not prevent ATP-mediated increases | 
Nc1ncnc2c1ncn2[C@@H]1O[C@H](COP(=O)(O)OP(=O)(O)OP(O)(O)=S)[C@@H](O)[C@H]1O [ATPγS] |  |  |  | agonist activity at the P2U receptor in Xenopus oocytes (murine P2U receptor [2]; Xenopus oocytes): relatively potent agonist; agonist activity at the P2U receptor (murine P2U receptor [4]; K562 stable transfectants): relatively potent agonist; EC50 (murine P2U receptor [4]; K562 stable transfectants, read-out: EC50 for increases in [Ca^2+ ]i): ~9.6 µM
Nc1ncnc2c1ncn2[C@@H]1O[C@H](COP(=O)(O)OP(=O)(O)OP(=O)(O)O)[C@@H](OC(=O)c2ccc(C(=O)c3ccccc3)cc2)[C@H]1O [BzATP, 3'-O-(4-benzoyl)benzoyl adenosine 5'-triphosphate] |  |  |  | agonist activity at the P2U receptor (murine P2U receptor [4]; K562 stable transfectants): relatively weak agonists compared to ATP and UTP
O=C(O[C@H]1[C@@H](O)[C@H](n2ccc(=O)[nH]c2=O)O[C@@H]1COP(=O)(O)OP(=O)(O)OP(=O)(O)O)c1ccc(C(=O)c2ccccc2)cc1 [BzUTP, 3'-O-(4-benzoyl)benzoyl uridine 5'-triphosphate] |  |  |  | agonist activity at the P2U receptor (murine P2U receptor [4]; K562 stable transfectants): relatively weak agonists compared to ATP and UTP
Nc1ccn([C@@H]2O[C@H](COP(=O)(O)OP(=O)(O)OP(=O)(O)O)[C@@H](O)[C@H]2O)c(=O)n1 [CTP] | had no effect | had no effect | did not prevent ATP-mediated increases | 
Nc1nc2c(ncn2[C@@H]2O[C@H](COP(=O)(O)OP(=O)(O)OP(=O)(O)O)[C@@H](O)[C@H]2O)c(=O)[nH]1 [GTP] | had no effect | had no effect | did not prevent ATP-mediated increases | 
Cc1cn([C@H]2C[C@H](O)[C@@H](COP(=O)(O)OP(=O)(O)OP(=O)(O)O)O2)c(=O)[nH]c1=O [TTP] | had no effect | had no effect | did not prevent ATP-mediated increases | 
O=c1ccn([C@@H]2O[C@H](COP(=O)(O)OP(=O)(O)O)[C@@H](O)[C@H]2O)c(=O)[nH]1 [UDP] | had no effect | had no effect | did not prevent ATP-mediated increases | 
Nc1ncnc2c1ncn2[C@@H]1O[C@H](CO)[C@@H](O)[C@H]1O [adenosine] | had no effect | had no effect | did not prevent ATP-mediated increases | 
C[N+](C)(C)CCOC(N)=O [carbachol] |  |  |  | [Ca^2+ ]i response of uninfected or LSN-infected 1321N1 cells [5]: elicited responses in each case
Nc1ncnc2c1ncn2[C@@H]1O[C@H](COP(=O)(O)CP(=O)(O)OP(=O)(O)O)[C@@H](O)[C@H]1O [α,β-MeATP] |  |  |  | efficacy / effect in concentration-effect curves (human P2U receptor [1]): had little effect
Nc1ncnc2c1ncn2[C@@H]1O[C@H](COP(=O)(O)OP(=O)(O)NP(=O)(O)O)[C@@H](O)[C@H]1O [β,γ imidoATP] | had no effect | had no effect | did not prevent ATP-mediated increases | 
Nc1ncnc2c1ncn2[C@@H]1O[C@H](COP(=O)(O)OP(=O)(O)CP(=O)(O)O)[C@@H](O)[C@H]1O [β,γ methyleneATP] | had no effect | had no effect | did not prevent ATP-mediated increases | 
apyrase |  |  |  | baseline inositol phosphate levels (human P2U receptor [6]): reduced the baseline inositol phosphate levels to values near those of controls
pertussis toxin |  |  |  | inhibition of ATP-stimulated intracellular Ca^2+ mobilization (human P2U receptor [1]; HP2U-1321N1 cells, pretreatment): 20-30%; inhibition of ATP-stimulated intracellular Ca^2+ mobilization [7]: 20-30%
